According to PMC10444810, “Induction of open-form bile canaliculus formation by hepatocytes for evaluation of biliary drug excretion” (Communications Biology, 2023):
Where “and” joins values, the source holds several entries; their conditions need not be identical. Equal values may be shown once. Read-outs that look alike come from different tables or passages of the source.

Legend:
[1] = Reported human in vivo biliary excretion clearance and intrinsic clearance estimated from it (Eq. 4)
[2] = tested on: sandwich-cultured PXB-cells; conditions: human, 1 μM
[3] = cited from earlier work; for Observed in vivo CLbile: human
[4] = cited from earlier work
[5] = blood/plasma concentration ratio, cited from earlier work
[6] = icHep permeation assay (sinusoidal to bile side) to estimate drug biliary excretion clearance; conditions: human
OCT1 = target: T1, OCT1 (Homo sapiens, UniProt O15245); conditions: for Uptake / CLuptake: single wells; for CLuptake, Mean: mean of wells
T1 sequence (O15245 1-554): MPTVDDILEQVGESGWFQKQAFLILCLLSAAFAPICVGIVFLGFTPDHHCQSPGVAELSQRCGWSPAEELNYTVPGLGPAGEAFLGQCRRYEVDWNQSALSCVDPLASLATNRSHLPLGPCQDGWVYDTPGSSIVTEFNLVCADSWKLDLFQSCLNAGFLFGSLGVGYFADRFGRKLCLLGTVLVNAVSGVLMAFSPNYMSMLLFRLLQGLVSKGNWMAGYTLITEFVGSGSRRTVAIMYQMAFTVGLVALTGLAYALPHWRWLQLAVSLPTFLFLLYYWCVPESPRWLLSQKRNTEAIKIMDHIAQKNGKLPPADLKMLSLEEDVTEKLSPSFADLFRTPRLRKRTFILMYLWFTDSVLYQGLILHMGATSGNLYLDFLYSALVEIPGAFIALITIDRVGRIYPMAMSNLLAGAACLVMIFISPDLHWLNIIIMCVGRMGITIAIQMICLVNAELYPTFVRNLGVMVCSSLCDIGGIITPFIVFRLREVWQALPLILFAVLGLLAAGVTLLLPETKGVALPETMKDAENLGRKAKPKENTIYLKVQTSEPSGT

[7] = tested on: primary human hepatocytes / PXB-cells; experiment: Counting hepatocyte bile canaliculi opening to the culture equipment (hemi-lumen formation rate); assay type: cell-based; conditions: for hemi-lumen formation rate: PXB-cells (donor), supports individually coated with each claudin; for Open bile canalicular formation rate (%) Mean / Open bile canalicular formation rate (%): icHep (JFC), claudin coating; for Open bile canalicular formation rate (%) Mean: mean of 3; for Open bile canalicular formation rate (%): single replicate
Experimental: Transwell^TM permeable support used was coated with 50 μg/ml rat tail collagen I (Corning) in 0.02 N acetic acid at room temperature for 1 h. Transwell^TM was washed twice with PBS, then the in vitro-synthesised claudin-1, -2, -3, and -9 proteins were applied to Transwell^TM at a density of 750 ng/cm^2 each and incubated at room temperature for 1 h. Transwell^TM was washed twice with PBS before seeding cells. Cryopreserved human hepatocytes (Donor ID. HU1663) were purchased from Thermo Fisher Scientific and thawed using CHRM. The hepatocytes were then diluted with WEM containing CM3000. PXB-cells (Donor ID. JFC, and HUM181001B) were obtained from PhoenixBio (Hiroshima, Japan) as described previously. […] PXB-cells were resuspended in 2% DMSO-supplemented hepatocyte growth medium (d-HCGM)[27]. Cryopreserved human hepatocytes and PXB-cells were seeded at a density of 2.1 × 10^5 cells/cm^2 in the protein-coated culture equipment. After 4 h of incubation, the culture medium was replaced with fresh culture medium to remove the unattached cells. After 24 h of incubation, the cells were cultured in d-HCGM supplemented with 250 μg/ml Matrigel. The spent medium was replaced with fresh medium every 3 days. Donor information for the human hepatocytes used is listed in Supplementary Table 2.
To count the open- and closed-type bile canaliculi, MRP2 immunostaining was performed using the Z-stack function of a confocal microscope (LSM710; Carl Zeiss, Oberkochen, Germany). Immunostaining was performed as previously described. The ratio of open-type bile canaliculi to the total number of bile canaliculi was calculated according to Eq. (1), and the value obtained was evaluated as the induction rate of open-type bile canaliculi. Here, Aopen bile canaliculi and Abile canaliculi indicate the number of open-type bile canaliculi and total number of bile canaliculi, respectively.1 Formationrate%=Aopenbilecanaliculi/Abilecanaliculi×100

[8] = estimated from observed CLbile with fp, Rb, Qh 1400 ml/min
[9] = estimated from observed in vivo CLbile with fp, Rb and Qh 1400 ml/min
[10] = reported in vivo biliary excretion clearance
[11] = unbound fraction of the plasma protein
[12] = unbound fraction, reported value
[13] = Biliary excretion clearance, in vitro, observed, CLbile, int, icHep (HUM181001B), CLbile,app of icHep minus control cells

CN/C(=N/CCSCc1nc[nH]c1C)NC#N [Cimetidine, cimetidine]
Observed in vivo CLbile, int [1, 8]: 12.3 mL/min
Observed in vivo CLbile, int [1, 9]: 12.3 mL/min
BEI (%) Mean ([2]; 2 min): 48.1%
Predicted in vivo CLbile, int, Mean ([2]; 2 min): 2714 mL/min
BEI (%) Mean ([2]; 5 min): 32.5%
Predicted in vivo CLbile, int, Mean ([2]; 5 min): 478 mL/min
BEI (%) Mean ([2]; 10 min): 19.7%
Predicted in vivo CLbile, int, Mean ([2]; 10 min): 126 mL/min
BEI (%) Mean ([2]; 20 min): 19.6%
Predicted in vivo CLbile, int, Mean ([2]; 20 min): 60.3 mL/min
Observed in vivo CLbile [3, 10]: 9.9 mL/min
Observed in vivo CLbile ([3]; reported value): 9.9 mL/min
fp, unbound fraction of the plasma protein ([4]; reported value): 0.81[32]
fp [4, 11]: 0.81
fp [4, 12]: 0.81
Rb ([5]; reported value): 0.97
Rb [5]: 0.97
hepatocyte CLint at 1 μM [6]: 0.869 ± 0.0152 µL/min/1e6 cells
hepatocyte CLint at 1 μM [6, 13]: 0.453 ± 0.163 µL/min/1e6 cells

CC[C@H]1OC(=O)[C@H](C)[C@@H](O[C@H]2C[C@@](C)(OC)[C@@H](O)[C@H](C)O2)[C@H](C)[C@@H](O[C@@H]2O[C@H](C)C[C@H](N(C)C)[C@H]2O)[C@](C)(O)C[C@@H](C)C(=O)[C@H](C)[C@@H](O)[C@]1(C)O [Erythromycin, erythromycin]
Observed in vivo CLbile, int [1, 8]: 285 mL/min
Observed in vivo CLbile, int [1, 9]: 285 mL/min
BEI (%) Mean ([2]; 2 min): 46.3%
Predicted in vivo CLbile, int, Mean ([2]; 2 min): 2262 mL/min
BEI (%) Mean ([2]; 5 min): 22.5%
Predicted in vivo CLbile, int, Mean ([2]; 5 min): 289 mL/min
BEI (%) Mean ([2]; 10 min): 30.0%
Predicted in vivo CLbile, int, Mean ([2]; 10 min): 238 mL/min
BEI (%) Mean ([2]; 20 min): 54.8%
Predicted in vivo CLbile, int, Mean ([2]; 20 min): 310 mL/min
Observed in vivo CLbile [3, 10]: 80.3 mL/min
Observed in vivo CLbile ([3]; reported value): 80.3 mL/min
Biliary excretion clearance, in vivo, observed, CLbile ([3]; in vivo): 80.3[36] ml/min
fp, unbound fraction of the plasma protein ([4]; plasma): 0.305[37]
fp [4, 11]: 0.305
fp [4, 12]: 0.305
Rb ([5]; reported value): 0.75
Rb [5]: 0.75
hepatocyte CLint at 1 μM [6]: 0.732 ± 0.0721 µL/min/1e6 cells
hepatocyte CLint at 1 μM [6, 13]: 0.793 ± 0.0723 µL/min/1e6 cells

CN(C)C(=N)N=C(N)N [Metformin]
Uptake (OCT1; icHep (HUM181001B), incubation time 0.5 min): 2.903 ul/106 cells and 3.372 ul/106 cells and 2.496 ul/106 cells and 3.301 ul/106 cells
Uptake (OCT1; icHep (HUM181001B), incubation time 1 min): 5.838 ul/106 cells and 5.176 ul/106 cells and 6.237 ul/106 cells and 6.072 ul/106 cells
Uptake (OCT1; icHep (HUM181001B), incubation time 2 min): 12.5578 ul/106 cells and 11.8508 ul/106 cells and 13.1191 ul/106 cells and 15.8618 ul/106 cells
Uptake (OCT1; icHep (HUM181001B), incubation time 5 min): 32.1771 ul/106 cells and 34.4238 ul/106 cells and 29.3661 ul/106 cells and 33.2229 ul/106 cells
CLuptake, Mean (OCT1; icHep (HUM181001B)): 7.52 ul/min/106 cells
CLuptake (OCT1; icHep (HUM181001B)): 6.72 ul/min/106 cells and 6.68 ul/min/106 cells and 6.88 ul/min/106 cells and 9.79 ul/min/106 cells
Uptake (OCT1; icHep (JFC), incubation time 0.5 min): 3.7065 ul/106 cells and 4.783 ul/106 cells and 4.1818 ul/106 cells and 4.442 ul/106 cells
Uptake (OCT1; icHep (JFC), incubation time 1 min): 7.468 ul/106 cells and 9.292 ul/106 cells and 7.7376 ul/106 cells and 10.2512 ul/106 cells
Uptake (OCT1; icHep (JFC), incubation time 2 min): 17.213 ul/106 cells and 18.5255 ul/106 cells and 16.0946 ul/106 cells and 17.048 ul/106 cells
Uptake (OCT1; icHep (JFC), incubation time 5 min): 50.6594 ul/106 cells and 43.7801 ul/106 cells and 38.495 ul/106 cells and 43.9119 ul/106 cells
CLuptake, Mean (OCT1; icHep (JFC)): 8.82 ul/min/106 cells
CLuptake (OCT1; icHep (JFC)): 7.5 ul/min/106 cells and 9.0 ul/min/106 cells and 7.1 ul/min/106 cells and 11.6 ul/min/106 cells

B1: claudin-1: human claudin-1 protein from E. coli cell-free synthesis, coated on the permeable support (protein, UniProt O95832 1-211, looked up)
Claudin-1: MANAGLQLLGFILAFLGWIGAIVSTALPQWRIYSYAGDNIVTAQAMYEGLWMSCVSQSTGQIQCKVFDSLLNLSSTLQATRALMVVGILLGVIAIFVATVGMKCMKCLEDDEVQKMRMAVIGGAIFLLAGLAILVATAWYGNRIVQEFYDPMTPVNARYEFGQALFTGWAAASLCLLGGALLCCSCPRKTTSYPTPRPYPKPAPSSGKDYV
hemi-lumen formation rate [7]: 44.5 ± 4.8%
Open bile canalicular formation rate (%) Mean [7]: 44.5%
Open bile canalicular formation rate (%) [7]: 50.0% and 41.5% and 42.0%

B2: claudin-3: human claudin-3 protein from E. coli cell-free synthesis, coated on the permeable support (protein, UniProt O15551 1-220, looked up)
Claudin-3: MSMGLEITGTALAVLGWLGTIVCCALPMWRVSAFIGSNIITSQNIWEGLWMNCVVQSTGQMQCKVYDSLLALPQDLQAARALIVVAILLAAFGLLVALVGAQCTNCVQDDTAKAKITIVAGVLFLLAALLTLVPVSWSANTIIRDFYNPVVPEAQKREMGAGLYVGWAAAALQLLGGALLCCSCPPREKKYTATKVVYSAPRSTGPGASLGTGYDRKDYV
hemi-lumen formation rate [7]: 38.6 ± 8.1%
Open bile canalicular formation rate (%) Mean [7]: 38.6%
Open bile canalicular formation rate (%) [7]: 34.6% and 33.3% and 48.0%

B3: claudin-2: human claudin-2 protein from E. coli cell-free synthesis, coated on the permeable support (protein, UniProt P57739 1-230, looked up)
Claudin-2: MASLGLQLVGYILGLLGLLGTLVAMLLPSWKTSSYVGASIVTAVGFSKGLWMECATHSTGITQCDIYSTLLGLPADIQAAQAMMVTSSAISSLACIISVVGMRCTVFCQESRAKDRVAVAGGVFFILGGLLGFIPVAWNLHGILRDFYSPLVPDSMKFEIGEALYLGIISSLFSLIAGIILCFSCSSQRNRSNYYDAYQAQPLATRSSPRPGQPPKVKSEFNSYSLTGYV
hemi-lumen formation rate [7]: 48.9 ± 12%
Open bile canalicular formation rate (%) Mean [7]: 48.9%
Open bile canalicular formation rate (%) [7]: 36.6% and 60.0% and 50.0%

B4: claudin-9: human claudin-9 protein from E. coli cell-free synthesis, coated on the permeable support (protein, UniProt O95484 1-217, looked up)
Claudin-9: MASTGLELLGMTLAVLGWLGTLVSCALPLWKVTAFIGNSIVVAQVVWEGLWMSCVVQSTGQMQCKVYDSLLALPQDLQAARALCVIALLLALLGLLVAITGAQCTTCVEDEGAKARIVLTAGVILLLAGILVLIPVCWTAHAIIQDFYNPLVAEALKRELGASLYLGWAAAALLMLGGGLLCCTCPPPQVERPRGPRLGYSIPSRSGASGLDKRDYV
hemi-lumen formation rate [7]: 35.9 ± 6.4%
Open bile canalicular formation rate (%) Mean [7]: 35.9%
Open bile canalicular formation rate (%) [7]: 30.3% and 42.9% and 34.5%
